Reference: US20250161501A1, “Radiolabeled Compounds for Imaging of Fibroblast Activation Protein (FAP) and Treatment of FAP-Related Disorders” (Provincial Health Services Authority, priority 2022, published 2025)

Key:
[1] = test system: HEK293T:hFAP tumor xenografts; experiment: Ex vivo biodistribution of 68Ga-labeled tracers in HEK293T:hFAP tumor-bearing mice; conditions: for Uptake in HEK293T:hFAP tumor xenografts, comparison in words: 68Ga-SB03178 vs 68Ga-FAPI-4, 68Ga-SB04033 vs 68Ga-SB03178
Experimental: (§1) All imaging and biodistribution studies were performed using male NOD-scidIL2Rg^null (NRG) mice and conducted according to the guidelines established by the Canadian Council on Animal Care and approved by Animal Ethics Committee of the University of British Columbia. For tumor inoculations, mice were anesthetized by inhalation with 2% isoflurane in oxygen and implanted subcutaneously with 7.5×10^6 HEK293T:hFAP or U87 cells below the left shoulder. Imaging and biodistribution studies were performed only after tumors grew to 5-8 mm in diameter.
(§2) For ex vivo biodistribution studies, mice were injected with -1-3 MBq of the ^68Ga-labeled tracer. Mice were allowed to recover and roam freely in the cages after injecting the tracer. […] The uptake in each organ/tissue was normalized to the injected dose and expressed as the percentage of the injected dose per gram of tissue (% ID/g).
Biodistribution data for ^68Ga-SB03178, ^68Ga-SB04033, and ^68Ga-FAPI-4 in mice bearing FAP tumor xenografts are presented in Tables 5-7. Data are presented as mean±SD % ID/g.

[2] = test system: U87 xenografts; experiment: Ex vivo biodistribution of 68Ga-labeled tracer in U87 tumor-bearing mice; conditions: U87 tumor model, mean±SD
Experimental: as §1
as §2, with “ID/g). […]” for “ID/g).”

[3] = HEK293T:hFAP tumor model, 1 h post-injection (n = 4), mean±SD
[4] = HEK293T:hFAP tumor model, 3 h post-injection (n = 2), mean±SD
[5] = HEK293T:hFAP tumor xenograft mice, 1 h post-injection, Table 5, mean±SD

## C[C@@H](NC(=O)c1ccnc2c1cc(OCCCN1CCN(C(=O)CN3CCN(CC(=O)O)CCN(CC(=O)O)CCN(CC(=O)O)CC3)CC1)c1ccccc12)C(=O)N1CCC[C@H]1B(O)O [^68Ga-SB04033, metal not drawn]
[1]
  Uptake in HEK293T:hFAP tumor xenografts, comparison in words: weaker uptake
[1]; [3]
  Biodistribution: Adrenal Glands: 0.65 ± 0.46 % ID/g
  Biodistribution: Blood: 3.62 ± 0.47 % ID/g
  Biodistribution: Bone: 1.52 ± 0.22 % ID/g
  Biodistribution: Brain: 0.08 ± 0.01 % ID/g
  Biodistribution: Fat: 0.30 ± 0.15 % ID/g
  Biodistribution: Heart: 0.95 ± 0.12 % ID/g
  Biodistribution: Kidneys: 10.3 ± 0.55 % ID/g
  Biodistribution: Large Intestines: 0.33 ± 0.03 % ID/g
  Biodistribution: Liver: 1.06 ± 0.11 % ID/g
  Biodistribution: Lungs: 2.13 ± 0.33 % ID/g
  Biodistribution: Muscle: 0.54 ± 0.11 % ID/g
  Biodistribution: Pancreas: 0.62 ± 0.05 % ID/g
  Biodistribution: Small Intestine: 1.53 ± 0.20 % ID/g
  Biodistribution: Spleen: 0.98 ± 0.27 % ID/g
  Biodistribution: Stomach: 0.30 ± 0.10 % ID/g
  Biodistribution: Testes: 0.59 ± 0.07 % ID/g
  Biodistribution: Tumor: 5.95 ± 0.16 % ID/g

## N#C[C@@H]1CC(F)(F)CN1C(=O)CNC(=O)c1ccnc2c1cc(OCCCN1CCN(C(=O)CN3CCN(CC(=O)O)CCN(CC(=O)O)CCN(CC(=O)O)CC3)CC1)c1ccccc12 [^68Ga-SB03178, metal not drawn]
[1]
  Uptake in HEK293T:hFAP tumor xenografts, comparison in words: higher uptake
[1]; [3]
  Biodistribution: Adrenal Glands: 3.01 ± 2.86 % ID/g
  Biodistribution: Blood: 2.59 ± 0.32 % ID/g
  Biodistribution: Bone: 1.89 ± 0.31 % ID/g
  Biodistribution: Brain: 0.06 ± 0.01 % ID/g
  Biodistribution: Fat: 0.22 ± 0.03 % ID/g
  Biodistribution: Heart: 0.71 ± 0.09 % ID/g
  Biodistribution: Kidneys: 9.58 ± 1.21 % ID/g
  Biodistribution: Large Intestines: 0.52 ± 0.21 % ID/g
  Biodistribution: Liver: 1.11 ± 0.15 % ID/g
  Biodistribution: Lungs: 1.66 ± 0.23 % ID/g
  Biodistribution: Muscle: 0.56 ± 0.08 % ID/g
  Biodistribution: Pancreas: 0.57 ± 0.05 % ID/g
  Biodistribution: Small Intestine: 1.04 ± 0.14 % ID/g
  Biodistribution: Spleen: 0.87 ± 0.30 % ID/g
  Biodistribution: Stomach: 0.27 ± 0.19 % ID/g
  Biodistribution: Testes: 0.44 ± 0.08 % ID/g
  Biodistribution: Tumor: 21.0 ± 3.84 % ID/g
[1]; [4]
  Biodistribution: Adrenal Glands: 0.31 ± 0.06 % ID/g
  Biodistribution: Blood: 1.35 ± 1.18 % ID/g
  Biodistribution: Bone: 0.38 ± 0.07 % ID/g
  Biodistribution: Brain: 0.02 ± 0.00 % ID/g
  Biodistribution: Fat: 0.11 ± 0.10 % ID/g
  Biodistribution: Heart: 0.15 ± 0.06 % ID/g
  Biodistribution: Kidneys: 3.89 ± 1.35 % ID/g
  Biodistribution: Large Intestines: 0.53 ± 0.13 % ID/g
  Biodistribution: Liver: 0.33 ± 0.13 % ID/g
  Biodistribution: Lungs: 0.39 ± 0.08 % ID/g
  Biodistribution: Muscle: 0.13 ± 0.08 % ID/g
  Biodistribution: Pancreas: 0.17 ± 0.05 % ID/g
  Biodistribution: Small Intestine: 0.34 ± 0.21 % ID/g
  Biodistribution: Spleen: 0.24 ± 0.07 % ID/g
  Biodistribution: Stomach: 0.06 ± 0.02 % ID/g
  Biodistribution: Testes: 0.12 ± 0.03 % ID/g
  Biodistribution: Tumor: 6.58 ± 1.98 % ID/g
[1]; [5]
  Biodistribution: Adrenal Glands: 3.48 ± 3.31 % ID/g
  Biodistribution: Blood: 3.00 ± 0.38 % ID/g
  Biodistribution: Bone: 2.18 ± 0.35 % ID/g
  Biodistribution: Brain: 0.07 ± 0.01 % ID/g
  Biodistribution: Fat: 0.25 ± 0.04 % ID/g
  Biodistribution: Heart: 0.82 ± 0.10 % ID/g
  Biodistribution: Kidneys: 11.1 ± 1.40 % ID/g
  Biodistribution: Liver: 1.29 ± 0.17 % ID/g
  Biodistribution: Lungs: 1.92 ± 0.26 % ID/g
  Biodistribution: Muscle: 0.65 ± 0.09 % ID/g
  Biodistribution: Pancreas: 0.66 ± 0.06 % ID/g
  Biodistribution: Spleen: 1.00 ± 0.35 % ID/g
  Biodistribution: Stomach: 0.32 ± 0.22 % ID/g
  Biodistribution: Testes: 0.51 ± 0.09 % ID/g
  Biodistribution: Tumor: 24.3±4.44 % ID/g
[2]; 1 h post-injection (n = 3)
  Biodistribution: Adrenal Glands: 1.41 ± 0.38 % ID/g
  Biodistribution: Blood: 3.55 ± 0.22 % ID/g
  Biodistribution: Bone: 2.51 ± 0.66 % ID/g
  Biodistribution: Brain: 0.07 ± 0.01 % ID/g
  Biodistribution: Fat: 0.28 ± 0.18 % ID/g
  Biodistribution: Heart: 0.80 ± 0.06 % ID/g
  Biodistribution: Kidneys: 8.92 ± 1.32 % ID/g
  Biodistribution: Large Intestines: 0.44 ± 0.09 % ID/g
  Biodistribution: Liver: 1.12 ± 0.08 % ID/g
  Biodistribution: Lungs: 1.66 ± 0.10 % ID/g
  Biodistribution: Muscle: 0.57 ± 0.21 % ID/g
  Biodistribution: Pancreas: 0.65 ± 0.11 % ID/g
  Biodistribution: Small Intestine: 1.07 ± 0.03 % ID/g
  Biodistribution: Spleen: 0.48 ± 0.08 % ID/g
  Biodistribution: Stomach: 0.28 ± 0.12 % ID/g
  Biodistribution: Testes: 0.65 ± 0.09 % ID/g
  Biodistribution: Tumor: 16.3 ± 1.72 % ID/g
[2]; 3 h post-injection (n = 3)
  Biodistribution: Adrenal Glands: 0.49 ± 0.30 % ID/g
  Biodistribution: Blood: 0.98 ± 0.09 % ID/g
  Biodistribution: Bone: 1.11 ± 0.27 % ID/g
  Biodistribution: Brain: 0.03 ± 0.00 % ID/g
  Biodistribution: Fat: 0.09 ± 0.04 % ID/g
  Biodistribution: Heart: 0.28 ± 0.01 % ID/g
  Biodistribution: Kidneys: 9.63 ± 1.23 % ID/g
  Biodistribution: Large Intestines: 1.15 ± 0.37 % ID/g
  Biodistribution: Liver: 0.71 ± 0.05 % ID/g
  Biodistribution: Lungs: 0.72 ± 0.11 % ID/g
  Biodistribution: Muscle: 0.34 ± 0.07 % ID/g
  Biodistribution: Pancreas: 0.27 ± 0.06 % ID/g
  Biodistribution: Small Intestine: 0.56 ± 0.16 % ID/g
  Biodistribution: Spleen: 0.34 ± 0.04 % ID/g
  Biodistribution: Stomach: 0.24 ± 0.02 % ID/g
  Biodistribution: Testes: 0.25 ± 0.03 % ID/g
  Biodistribution: Tumor: 7.95 ± 0.29 % ID/g
